“Also recorded” adds a separate entry of the source. Like-named read-outs stand apart in the source and are kept apart here. Some results are limits rather than exact numbers.

Assay [1] has as its target T1, opioid receptors in rat brain membrane preparations (Rattus norvegicus, UniProt P33535).
Experimental: (§2) The data was analyzed, using the program LIGAND of Munson and Rodbard.
The target of assay [2] is T1, opioid receptors in rat brain membrane preparations. In words: 3H-DHM displacement from rat brain membranes (Example 4 method). Particulars: for Hill coefficient / binding activity in synaptosomal membranes (in words): 3H-DHM displacement; for binding activity in synaptosomal membranes (in words): rat brain synaptosomal membranes.
Experimental: as §2
Assay [3] shares this target. As to the kind of experiment: biochemical.
Experimental: as §2
Assay [4] has as its target T2, guinea-pig ileum myenteric plexus-longitudinal muscle (Cavia porcellus, UniProt A0ACM8Q262).
T2 construct: normorphine as agonist
As to the kind of experiment: Guinea-pig ileum myenteric plexus-longitudinal muscle bioassay, single dose method, normorphine agonist (Example 12). Particulars: for opioid antagonism, G.p.i.: G.p.i. bioassay; for Relative potency, bioassay G.P.I.: Ke of naloxone in m.v.d. taken to be 1; for reversal of antagonism by naloxone, G.p.i.: addition of naloxone; for duration of action in the G.p.i. (in words): compared with parent opioids; for t1/2 (half-time of recovery), guinea-pig M. plexus / Kb: geometric mean (95% confidence limits); for Kb: agonist normorphine, read-out: Ke (dissociation constant), guinea-pig M. plexus. In kind it is cell-based.

The target in another assay is T3, mouse vas deferens (Mus musculus, UniProt P32300).
T3 construct: Each of several samples of mouse vas deferens (m.v.d.); tissue A-Lab, Solna, Sweden (mice); host or cells: vas deferens of male NMRI mice
As to the kind of experiment: Mouse vas deferens bioassay, single dose method, DALE agonist (Example 12). The class given is cell-based. Particulars: for inhibitory effect on the contractions (in words) / duration / reversibility of antagonism in the m.v.d. (in words): m.v.d.; for opioid antagonism, m.v.d.: m.v.d. bioassay; for inhibition of DALE-induced contractions of the m.v.d.: 25-1000 nM, all doses tested; for Relative potency, bioassay M.V.D.: Ke of naloxone in m.v.d. taken to be 1; for t1/2 (half-time of recovery), mouse vas deferens: geometric mean (95% confidence limits); for reversal of antagonism by naloxone, m.v.d.: naloxone up to 10,000 nM; for M.V.D./G.P.I. (relative affinity): ratio of m.v.d. to G.p.i. relative potency.

Assay [5] addresses T4, delta-type opioid binding sites (Rattus norvegicus, UniProt P33533).
T4 construct: Rat brain membranes were prepared; from tissue; host or cells: rat brain membranes
In words: Delta-site binding, 1 nM [3H]-DALE with 30 nM DAGO, rat brain membranes. Particulars: for Relative potency, binding assay Delta: Ki of naloxone in inhibiting 3H-DALE taken to be 1; for Relative affinity, delta: Ki^-1 x 100 / sum of Ki^-1 values; for delta affinity / selectivity (in words): delta-type opioid receptors. Here is the method:
(§1) Rat brain membranes were prepared and binding assays performed as previously described by Neil, A. in "Detection and characterization of four opioid binding sites in the mouse brain," Acta Pharmacol. Tox. 56: 108-116 (1985).

The target of assay [6] is T5, mu-type opioid binding sites (Rattus norvegicus, UniProt P33535).
T5 construct: Rat brain membranes were prepared; from tissue; host or cells: rat brain membranes
In words: Mu-site binding, 0.2 nM [3H]-dihydromorphine, rat brain membranes. Particulars: for Relative potency, binding assay Mu: Ki of naloxone in inhibiting 3H-DALE taken to be 1; for Relative affinity, mu: Ki^-1 x 100 / sum of Ki^-1 values; for Ki: [3H]-DHM, read-out: Ki, mu (inhibition of binding). The method, then: as §1

Assay [7] addresses T6, kappa-type opioid binding sites (Rattus norvegicus, UniProt P34975).
T6 construct: Rat brain membranes were prepared; from tissue; host or cells: rat brain membranes
As to the kind of experiment: Kappa-site binding, 1 nM [3H]-(±)-EKC with 200 nM DAGO and DADL, rat brain membranes. Particulars: for Relative potency, binding assay Kappa: Ki of naloxone in inhibiting 3H-DALE taken to be 1; for Relative affinity, kappa: Ki^-1 x 100 / sum of Ki^-1 values. Here is the method:
as §1

Assay [8] has as its system guinea pig ileum longitudinal muscle preparation. As to the kind of experiment: Electrically stimulated guinea pig ileum longitudinal muscle (Example 5). The class given is cell-based. Particulars: 25 microliters; 10^-7 M. Here is the method: 6-FN was tested for activity on an electrically stimulated guinea pig ileum longitudinal muscle preparation. In this test, a specimen of guinea pig ileum was stretched between two wires in a nutrient solution (2.5 mil.) and stimulated supramaximally at 0.1 Hz. In the absence of opioid agonists and antagonists electrical stimulation of the muscle results in contraction.

T6 sequence (P34975 whole entry): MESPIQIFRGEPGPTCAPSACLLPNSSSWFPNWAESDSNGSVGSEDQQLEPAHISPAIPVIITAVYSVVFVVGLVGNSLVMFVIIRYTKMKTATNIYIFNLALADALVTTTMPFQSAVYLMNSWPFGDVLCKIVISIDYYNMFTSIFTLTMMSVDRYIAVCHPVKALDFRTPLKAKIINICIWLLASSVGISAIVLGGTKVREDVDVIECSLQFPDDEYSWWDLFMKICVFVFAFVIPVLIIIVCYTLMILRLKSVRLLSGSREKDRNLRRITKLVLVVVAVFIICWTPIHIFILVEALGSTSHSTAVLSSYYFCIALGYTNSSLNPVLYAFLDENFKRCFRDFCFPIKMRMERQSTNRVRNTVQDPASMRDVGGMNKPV
T5 sequence (P33535 whole entry): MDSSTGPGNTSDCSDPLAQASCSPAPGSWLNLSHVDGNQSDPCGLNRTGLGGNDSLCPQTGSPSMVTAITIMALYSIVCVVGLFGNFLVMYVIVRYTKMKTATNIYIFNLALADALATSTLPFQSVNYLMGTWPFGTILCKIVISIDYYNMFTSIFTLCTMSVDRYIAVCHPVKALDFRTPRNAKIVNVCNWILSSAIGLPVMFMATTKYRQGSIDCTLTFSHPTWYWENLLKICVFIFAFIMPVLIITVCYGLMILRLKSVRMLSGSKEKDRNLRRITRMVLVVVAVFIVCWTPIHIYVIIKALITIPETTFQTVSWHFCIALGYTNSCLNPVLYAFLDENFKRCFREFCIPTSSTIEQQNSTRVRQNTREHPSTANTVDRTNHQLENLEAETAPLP
T1 sequence (P33535 whole entry): as above
T4 sequence (P33533 whole entry): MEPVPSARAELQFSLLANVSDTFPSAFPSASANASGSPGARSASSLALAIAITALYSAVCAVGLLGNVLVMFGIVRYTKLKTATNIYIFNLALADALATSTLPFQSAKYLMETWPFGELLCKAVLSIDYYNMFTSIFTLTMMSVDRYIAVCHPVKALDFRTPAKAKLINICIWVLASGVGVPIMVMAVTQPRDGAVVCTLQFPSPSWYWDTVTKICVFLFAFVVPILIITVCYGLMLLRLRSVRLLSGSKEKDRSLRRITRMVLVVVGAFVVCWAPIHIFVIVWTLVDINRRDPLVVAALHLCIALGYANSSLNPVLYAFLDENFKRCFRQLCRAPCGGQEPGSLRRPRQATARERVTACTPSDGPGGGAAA
T3 sequence (P32300 whole entry): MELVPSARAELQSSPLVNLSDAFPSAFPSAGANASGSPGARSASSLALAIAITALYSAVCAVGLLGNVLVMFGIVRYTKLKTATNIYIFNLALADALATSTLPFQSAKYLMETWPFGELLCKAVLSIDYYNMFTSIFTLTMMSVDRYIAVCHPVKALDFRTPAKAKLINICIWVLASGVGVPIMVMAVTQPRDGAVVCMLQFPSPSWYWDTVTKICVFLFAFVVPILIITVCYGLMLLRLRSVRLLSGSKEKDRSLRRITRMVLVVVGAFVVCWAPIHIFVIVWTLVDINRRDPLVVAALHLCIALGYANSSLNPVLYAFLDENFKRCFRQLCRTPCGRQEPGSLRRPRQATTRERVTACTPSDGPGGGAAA
T2 sequence (A0ACM8Q262 1-400): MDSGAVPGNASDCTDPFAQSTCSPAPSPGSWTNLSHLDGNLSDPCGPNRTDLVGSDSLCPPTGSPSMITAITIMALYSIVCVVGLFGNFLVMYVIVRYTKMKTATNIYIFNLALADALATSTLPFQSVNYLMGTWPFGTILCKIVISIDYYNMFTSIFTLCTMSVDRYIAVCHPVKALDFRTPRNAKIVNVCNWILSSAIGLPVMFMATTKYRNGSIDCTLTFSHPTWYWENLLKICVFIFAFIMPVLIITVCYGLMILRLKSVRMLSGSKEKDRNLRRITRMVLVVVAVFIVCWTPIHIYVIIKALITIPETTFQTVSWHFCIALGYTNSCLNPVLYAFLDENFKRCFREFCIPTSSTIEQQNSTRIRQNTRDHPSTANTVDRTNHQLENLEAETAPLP

Compound `C=CCN1CC[C@]23c4c5ccc(O)c4O[C@H]2C(NC(=S)Nc2ccc4c(c2)C(=O)OC42c4ccc(O)cc4Oc4cc(O)ccc42)CC[C@@]3(O)[C@H]1C5` (single isomer, unassigned) [FAN, N-(1-N-allyl-14-hydroxynordihydro-6δ-morphinanyl)-N'-fluorosceinyl thiourea] showed a Kd in assay [1] of 18.9 nM.

`O=C1OC2(c3ccc(O)cc3Oc3cc(O)ccc32)c2ccc(NC(=S)NN=C(c3ccccc3)c3ccccc3)cc21` [6-FB, 1-(N)-fluoresceinyl benzophenone thiosemicarbazone, reference compound]: in assay [2] (10^-6 M), the “displacement of 3H-DHM (result in words)” value was “inactive”.

Compound `O=C1OC2(c3ccc(O)cc3Oc3cc(O)ccc32)c2ccc(NC(=S)NN=C3CC[C@@]4(O)[C@H]5Cc6ccc(O)c7c6[C@@]4(CCN5CC4CC4)[C@H]3O7)cc21` [6-FNX, 1-(N)-fluoresceinyl naltrexone thiosemicarbazone] displayed a Kd in assay [3] of 2.6 nM. In [2], the Hill coefficient turned out to be 0.675 and the “binding activity in synaptosomal membranes (in words)” value (“binding activity” below) is given as “sufficient binding activity”.

Take `CN1CC[C@]23c4c5ccc(O)c4O[C@H]2C(=NNC(=S)Nc2ccc4c(c2)C(=O)OC42c4ccc(O)cc4Oc4cc(O)ccc42)CC[C@@]3(O)[C@H]1C5` [6-FO, 1-(N)-fluoresceinyl oxymorphone thiosemicarbazone]: the Kd in assay [1] was 12.8 nM. In [2], the Hill coefficient was 0.989 and the “binding activity” value was “sufficient binding activity”.

On to `C=CCN1CC[C@]23c4c5ccc(O)c4O[C@H]2C(=NNC(=S)Nc2ccc(-c4c6ccc(=[N+](C)C)cc-6oc6cc(N(C)C)ccc46)c(C(=O)[O-])c2)CC[C@@]3(O)[C@H]1C5` [6-RN, 1-(N)-tetramethylrhodaminyl-B-naloxone Thiosemicarbazone], for which the Kd in assay [1] was found to be 5.3 nM. In [2], the Hill coefficient was 1.09 and the “binding activity” value is “sufficient binding activity”. Further, the IC50 in assay [2] (read-out: IC50 (concentration necessary for 50% displacement of 3H-DHM), rat brain synaptosomal plasma membranes, determined graphically) was 12 nM.

`C[C@]12CC[C@@H]3c4ccc(O)cc4CC[C@H]3[C@@H]1CC[C@@H]2O` [17-beta-estradiol, reference compound]: the “opioid antagonism, G.p.i.” value in [4] is “none of the steroids, EH, ADDH or 17-beta-estradiol, showed opioid antagonism”. Moreover, at mouse vas deferens, the “inhibitory effect on the contractions (in words)” value (from here on “inhibitory effect”) is reported as “no inhibitory effect on the contractions” and the “opioid antagonism, m.v.d.” value was “none of the steroids, EH, ADDH or 17-beta-estradiol, showed opioid antagonism”.

For `C[C@]12CCC(=NN)C=C1CC[C@@H]1[C@@H]2CC[C@]2(C)C(=NN)CC[C@@H]12` [ADDH, Δ^4 androstenedione-(3,17)-dihydrazone, reference compound], the “opioid antagonism, G.p.i.” value in assay [4] is “none of the steroids, EH, ADDH or 17-beta-estradiol, showed opioid antagonism”. Moreover, at mouse vas deferens, the “inhibitory effect” value is “inhibitory effects of magnitudes similar to NAL-E and NAL-AD-NAL”; the “opioid antagonism, m.v.d.” value is “none of the steroids, EH, ADDH or 17-beta-estradiol, showed opioid antagonism”.

On to `C[C@]12CC[C@@H]3c4ccc(O)cc4CC[C@H]3[C@@H]1CCC2=NN` [EH, estrone hydrazone, reference compound], for which the “opioid antagonism, G.p.i.” value in assay [4] is recorded as “none of the steroids, EH, ADDH or 17-beta-estradiol, showed opioid antagonism”. In addition, at mouse vas deferens, the “inhibitory effect” value was “inhibitory effects of magnitudes similar to NAL-E and NAL-AD-NAL”; the “opioid antagonism, m.v.d.” value is “none of the steroids, EH, ADDH or 17-beta-estradiol, showed opioid antagonism”.

In the case of `C=CCN1CC[C@]23c4c5ccc(O)c4O[C@H]2C(=NN=C2C=C4CC[C@@H]6[C@H](CC[C@]7(C)C(=NN=C8CC[C@@]9(O)[C@H]%10Cc%11ccc(O)c%12c%11[C@@]9(CCN%10CC=C)[C@H]8O%12)CC[C@@H]67)[C@@]4(C)CC2)CC[C@@]3(O)[C@H]1C5` [NAL-AD-NAL], in assay [5], the “Relative potency, binding assay Delta” value is 3.4; the “Relative affinity, delta” value stood at 5; the “delta affinity / selectivity (in words)” value was “not to show a high delta affinity”. In addition, in [6], the “Relative potency, binding assay Mu” value was determined as 18.0; the “Relative affinity, mu” value stood at 78; the inhibition constant Ki amounted to 1.6 nM. For the same compound, the “mu receptor affinity (in words)” value in assay [6] (compared with naloxone) is listed as “mu receptor affinity on the order of naloxone”. In addition, in [4], the “Relative potency, bioassay G.P.I.” value is reported as 8.9; the “reversal of antagonism by naloxone, G.p.i.” value is recorded as “Nor were the NAL-E or NAL-AD-NAL antagonisms in the G.p.i. reversed by naloxone”; the “duration of action in the G.p.i. (in words)” value is listed as “somewhat longer acting than their parent opioids”; the “t1/2 (half-time of recovery), guinea-pig M. plexus” value was 34 min. In [4], the Kb is 5.7 nM. For the same compound, on mouse vas deferens, the Kb came out at 37 nM; the “inhibition of DALE-induced contractions of the m.v.d.” value is listed as 20-50%; the “Relative potency, bioassay M.V.D.” value is reported as 1.4; the “t1/2 (half-time of recovery), mouse vas deferens” value is recorded as 19 (14-24) min. In addition, at mouse vas deferens, the “reversal of antagonism by naloxone, m.v.d.” value is reported as “not reversed by addition of naloxone” and the “M.V.D./G.P.I. (relative affinity)” value worked out at 0.16. Further, in assay [7], the “Relative potency, binding assay Kappa” value was found to be 0.19 and the “Relative affinity, kappa” value is 7.

For `C=CCN1CC[C@]23c4c5ccc(O)c4O[C@H]2C(=NN=C2CC[C@H]4[C@@H]6CCc7cc(O)ccc7[C@H]6CC[C@]24C)CC[C@@]3(O)[C@H]1C5` [NAL-E], in [5], the “Relative potency, binding assay Delta” value is listed as 7.4; the “Relative affinity, delta” value turned out to be 70; the “delta affinity / selectivity (in words)” value was “delta selective; also recorded: long lasting and selectively and preferentially bind delta-type opioid receptors”. The “delta affinity / selectivity (in words)” value in assay [5] (listed as Nal-E) is “far more delta selective than naloxone”. For the same compound, in assay [6], the “Relative potency, binding assay Mu” value is reported as 1.7; the “Relative affinity, mu” value is 16; the Ki worked out at 17 nM. For the same compound, in assay [4], the “Relative potency, bioassay G.P.I.” value turned out to be 0.74; the “reversal of antagonism by naloxone, G.p.i.” value was “Nor were the NAL-E or NAL-AD-NAL antagonisms in the G.p.i. reversed by naloxone”; the “duration of action in the G.p.i. (in words)” value was “somewhat longer acting than their parent opioids”; the “t1/2 (half-time of recovery), guinea-pig M. plexus” value was 27 min. Further, in assay [4], the Kb worked out at 69 nM. In addition, the “selectivity in antagonizing normorphine (in words)” value in assay [4] (compared with naloxone, mu-rich tissue) is on record as “far less selective”. In assay [4] (less potent than naloxone), the “fold less potent than naloxone, G.p.i.” value came to 22 fold. Further, on mouse vas deferens, the Kb turned out to be 5.8 nM; the “inhibition of DALE-induced contractions of the m.v.d.” value was 20-50%; the “Relative potency, bioassay M.V.D.” value is listed as 8.8; the “t1/2 (half-time of recovery), mouse vas deferens” value is on record as > 1000 min. Besides, at mouse vas deferens, the “duration / reversibility of antagonism in the m.v.d. (in words)” value was “very longlasting; also recorded: very long lasting effects”; the “reversal of antagonism by naloxone, m.v.d.” value is “not reversed by addition of naloxone”; the “M.V.D./G.P.I. (relative affinity)” value was 12.0. Further, on mouse vas deferens (antagonism of DALE effects), the “antagonist potency versus naloxone, m.v.d.” value was “nine-fold more potent than naloxone”. In addition, the “selectivity in antagonizing D-Ala2-Leu5-enkephalin effects (in words)” value at mouse vas deferens (compared with naloxone, delta-rich tissue) is recorded as “far more selective than naloxone”. For the same compound, the “duration / reversibility of antagonism in the m.v.d. (in words)” value on mouse vas deferens (listed as NALE) is on record as “almost irreversible in some observations”. Moreover, in assay [7], the “Relative potency, binding assay Kappa” value came out at 4.4 and the “Relative affinity, kappa” value is 14.

In the case of `C=CCN1CC[C@]23c4c5ccc(O)c4O[C@H]2C(=O)CC[C@@]3(O)[C@H]1C5` [naloxone, reference compound], the “t1/2 (half-time of recovery), guinea-pig M. plexus” value in assay [4] amounted to 15 min.

As to `Oc1ccc2c3c1O[C@H]1[C@@H](O)C=C[C@H]4[C@@H](C2)NCC[C@@]341` [normorphine, reference compound], the “inhibition of contraction of the muscle (agonist effect)” value in [8] is recorded as “substantially inhibited contraction of the muscle”.

For the origin of these results see patent US4910152A, “Method for binding opioid receptors” (priority 1986, dated 1990).
